Data set [1] in a line: Particle size and PDI of nucleic acid lipid nanoparticle preparations by dynamic light scattering. The data set is classed as physicochemical. The procedure, abridged:
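LNP solution (about 0.04 mg/mL mRNA before dilution) was diluted in ultrapure water and mixed by gentle pipetting. Particle size and PDI were then measured by dynamic light scattering.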

Another data set concerns mice. As to the kind of experiment: In vivo delivery of FLuc-mRNA lipid nanoparticles in mice, in vivo imaging (IVIS). Put shortly: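 Mice (n=3) received about 75 μL FLuc-mRNA LNP per mouse intramuscularly (rectus femoris), intravenously (tail vein), intraperitoneally or subcutaneously (back). After injection, D-luciferin (200 μL, 15 mg/mL) was given i.p. 10-15 min before IVIS imaging.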

Where [2] appears, read: DMG-PEG2000:DSPC:Chol:Lipid 1.00:11.50:22.50:65.00, N/P 45, mRNA LNP.
[3] abbreviates: DMG-PEG2000:DSPC:Chol:Lipid 1.00:16.00:48.00:35.00, N/P 30, mRNA LNP.
Setting [4] is: DMG-PEG2000:DSPC:Chol:Lipid 1.40:11.15:38.95:48.50, N/P 45, mRNA LNP.
Setting [5] is: DMG-PEG2000:DSPC:Chol:Lipid 1.00:11.50:22.50:65.00, N/P 45, IV, liver.
[6] abbreviates: DMG-PEG2000:DSPC:Chol:Lipid 1.00:11.50:22.50:65.00, N/P 45, IV, lung.
Setting [7] is: DMG-PEG2000:DSPC:Chol:Lipid 1.00:11.50:22.50:65.00, N/P 45, IV, spleen.
[8] abbreviates: DMG-PEG2000:DSPC:Chol:Lipid 1.00:16.00:48.00:35.00, N/P 30, IV, liver.
Where [9] appears, read: DMG-PEG2000:DSPC:Chol:Lipid 1.00:16.00:48.00:35.00, N/P 30, IV, lung.
Setting [10] is: DMG-PEG2000:DSPC:Chol:Lipid 1.00:16.00:48.00:35.00, N/P 30, IV, spleen.
The mark [11] stands for this setting: DMG-PEG2000:DSPC:Chol:compound 1.40:11.15:38.95:48.50, N/P 30.
Where [12] appears, read: IM, DMG-PEG2000:DSPC:Chol:compound 1.40:11.15:38.95:48.50, N/P 30, Fluc-mRNA.
[13] abbreviates: IV, organ not given, DMG-PEG2000:DSPC:Chol:compound 1.40:11.15:38.95:48.50, N/P 30, Fluc-mRNA.
Setting [14] is: DMG-PEG2000:DSPC:Chol:compound 1.40:11.15:38.95:48.50, N/P 20.
Setting [15] is: IM, DMG-PEG2000:DSPC:Chol:compound 1.40:11.15:38.95:48.50, N/P 20, Fluc-mRNA.
Where [16] appears, read: IV, organ not given, DMG-PEG2000:DSPC:Chol:compound 1.40:11.15:38.95:48.50, N/P 20, Fluc-mRNA.
Where [17] appears, read: DMG-PEG2000:DSPC:Chol:Lipid 0.95:7.58:26.47:65.00, N/P 18, mRNA LNP.
Setting [18] is: DMG-PEG2000:DSPC:Chol:Lipid 1.40:11.15:38.95:48.50, N/P 18, mRNA LNP.
The mark [19] stands for this setting: DMG-PEG2000:DSPC:Chol:Lipid 1.00:8.00:51.00:40.00, N/P 6.7, mRNA LNP.
The mark [20] stands for this setting: DMG-PEG2000:DSPC:Chol:Lipid 1.50:8.00:30.50:60.00, N/P 8.3, mRNA LNP.
The mark [21] stands for this setting: DMG-PEG2000:DSPC:Chol:Lipid 1.63:12.99:45.38:40.00, N/P 25, mRNA LNP.
[22] abbreviates: DMG-PEG2000:DSPC:Chol:Lipid 1.00:8.00:51.00:40.00, N/P 6.7, IV, liver.
Where [23] appears, read: DMG-PEG2000:DSPC:Chol:Lipid 1.00:8.00:51.00:40.00, N/P 6.7, IV, lung.
The mark [24] stands for this setting: DMG-PEG2000:DSPC:Chol:Lipid 1.00:8.00:51.00:40.00, N/P 6.7, IV, spleen.
The mark [25] stands for this setting: DMG-PEG2000:DSPC:Chol:Lipid 1.50:8.00:30.50:60.00, N/P 8.3, IV, liver.
Setting [26] is: DMG-PEG2000:DSPC:Chol:Lipid 1.50:8.00:30.50:60.00, N/P 8.3, IV, lung.
Where [27] appears, read: DMG-PEG2000:DSPC:Chol:Lipid 1.50:8.00:30.50:60.00, N/P 8.3, IV, spleen.

In the case of `CCCCCCCCCCCCOC(=O)C(O)CN(CCCN(CC(O)C(=O)OCCCCCCCCCCCC)CC(O)C(=O)OCCCCCCCCCCCC)CCCN(CC(O)C(=O)OCCCCCCCCCCCC)CC(O)C(=O)OCCCCCCCCCCCC` (stereo not drawn) [Compound L0269], the PDI came out at 0.06 ± 0.01 in data set [1] (setting [2]), 0.11 ± 0.01 in data set [1] (setting [3]) and 0.10 ± 0.01 in data set [1] (setting [4]). For the same compound, the Particle size was determined as 128.20 ± 0.89 nm in data set [1] (setting [2]), 125.17 ± 1.03 nm in data set [1] (setting [3]) and 142.10 ± 0.78 nm in data set [1] (setting [4]). Also, the IVIS was 9.49 × 10^8 in the data set on mice (DMG-PEG2000:DSPC:Chol:Lipid 1.00:11.50:22.50:65.00, N/P 45, IV, body); 2.05 × 10^8 in the data set on mice (setting [5]); 1.88 × 10^6 in the data set on mice (setting [6]); 8.80 × 10^7 in the data set on mice (setting [7]); 5.46 × 10^8 with mice (DMG-PEG2000:DSPC:Chol:Lipid 1.00:16.00:48.00:35.00, N/P 30, IV, body); 7.87 × 10^7 in the data set with mice (setting [8]). Also, the IVIS is given as 8.92 × 10^5 in the data set on mice (setting [9]); 1.94 × 10^8 with mice (setting [10]); 3.83 × 10^7 in the data set with mice (DMG-PEG2000:DSPC:Chol:Lipid 1.40:11.15:38.95:48.50, N/P 45, IM, whole body scan). Besides, the “% of organ targeting” value with mice (setting [5]) amounted to 69.52%; in the data set on mice (setting [6]) it was 0.64%; in the data set with mice (setting [7]), 29.84%; with mice (setting [8]), 28.77%; in the data set with mice (setting [9]), 0.33%; in the data set with mice (setting [10]), 70.91%. Moreover, in the data set on mice (certain formulations, Table 2), the “in vivo delivery efficiency as compared to the benchmark compound SM102” value is recorded as “superior in vivo delivery efficiency”.

For `CCCCCCCCCCCCOC(=O)C(O)CN(C)CCCN(C)CCCN(C)CC(O)C(=O)OCCCCCCCCCCCC` (stereo not drawn) [Compound L0310], in data set [1] (setting [11]), the PDI is 0.22 and the “Particle size (nm)” value is given as 190.63 nm. For the same compound, the IVIS with mice (setting [12]) amounted to 1.53E+05. Besides, in the data set with mice (setting [13]), the IVIS turned out to be 2.77E+05.

With `CCCCCCCCCCCCOC(=O)C(O)CN(CCOCCN(CC(O)C(=O)OCCCCCCCCCCCC)CC(O)C(=O)OCCCCCCCCCCCC)CC(O)C(=O)OCCCCCCCCCCCC` (stereo not drawn) [Compound L0312], in data set [1] (setting [14]), the PDI worked out at 0.12 and the “Particle size (nm)” value was 172.73 nm. Moreover, in the data set on mice (setting [15]), the IVIS was found to be 9.71E+05. The IVIS in the data set with mice (setting [16]) is reported as 5.52E+05.

As for `CCCCCCCCCCOC(=O)C(O)CN(C)CCN(C)CCN(C)CC(O)C(=O)OCCCCCCCCCC` (stereo not drawn) [Compound L0275], the PDI in data set [1] (setting [17]) worked out at 0.13 ± 0.01; in data set [1] (setting [18]), 0.17 ± 0.01. Besides, the values for the Particle size in data set [1] (setting [17]) and in data set [1] (setting [18]) were 121.27 ± 0.93 nm and 85.45 ± 0.70 nm, respectively. Moreover, the IVIS in the data set with mice (DMG-PEG2000:DSPC:Chol:Lipid 0.95:7.58:26.47:65.00, N/P 18, IM, whole body scan) is recorded as 1.47 × 10^6; with mice (DMG-PEG2000:DSPC:Chol:Lipid 1.40:11.15:38.95:48.50, N/P 18, IV, whole body scan), 4.52 × 10^5.

`CCCCCCCCCCNC(=O)C(O)CN(C)CCCN(C)CCCN(C)CC(O)C(=O)NCCCCCCCCCC` (stereo not drawn) [Compound L0327]: the PDI in data set [1] (setting [11]) came out at 0.18. The “Particle size (nm)” value in data set [1] (setting [11]) is given as 108.57 nm. Besides, the IVIS is reported as 4.85E+05 in the data set with mice (setting [12]) and 2.98E+05 in the data set with mice (setting [13]).

On to `CCCCCCCCCCCCNC(=O)C(O)CN(C)CCCN(C)CCCN(C)CC(O)C(=O)NCCCCCCCCCCCC` (stereo not drawn) [Compound L0311], for which, in data set [1] (setting [11]), the PDI is listed as 0.16 and the “Particle size (nm)” value amounted to 111.00 nm. In addition, in the data set on mice (setting [12]), the IVIS was 2.23E+05. Moreover, in the data set on mice (setting [13]), the IVIS stood at 4.57E+05.

In the case of `CCCCCCCCCCNC(=O)C(O)CN(CCN(C)CCN(CC(O)C(=O)NCCCCCCCCCC)CC(O)C(=O)NCCCCCCCCCC)CC(O)C(=O)NCCCCCCCCCC` (stereo not drawn) [Compound L0266], the values for the PDI in data set [1] (setting [19]), in data set [1] (setting [20]) and in data set [1] (setting [21]) were 0.10 ± 0.01, 0.17 ± 0.02 and 0.17 ± 0.01, respectively. The Particle size was 80.47 ± 1.22 nm in data set [1] (setting [19]), 108.70 ± 0.82 nm in data set [1] (setting [20]) and 85.98 ± 1.18 nm in data set [1] (setting [21]). The IVIS in the data set with mice (DMG-PEG2000:DSPC:Chol:Lipid 1.00:8.00:51.00:40.00, N/P 6.7, IV, body) is given as 3.13 × 10^7; in the data set on mice (setting [22]), 3.13 × 10^6; with mice (setting [23]), 2.64 × 10^6; with mice (setting [24]), 5.03 × 10^6; with mice (DMG-PEG2000:DSPC:Chol:Lipid 1.50:8.00:30.50:60.00, N/P 8.3, IV, body) it was 2.53 × 10^7; in the data set with mice (setting [25]) it was 1.72 × 10^6. For the same compound, the IVIS is 4.34 × 10^7 in the data set with mice (setting [26]); 3.63 × 10^6 in the data set with mice (setting [27]); 2.20 × 10^6 with mice (DMG-PEG2000:DSPC:Chol:Lipid 1.63:12.99:45.38:40.00, N/P 25, IM, whole body scan). Besides, the “% of organ targeting” value with mice (setting [22]) was 28.98%; with mice (setting [23]) it was 24.44%; in the data set with mice (setting [24]), 46.57%; with mice (setting [25]), 3.53%; in the data set with mice (setting [26]) it was 89.03%; in the data set on mice (setting [27]), 7.45%. Moreover, the “tissue-targeting specificity (lung vs spleen depending on molar percentage of compound)” value in the data set on mice (certain formulations, Table 2) is “strong tissue-targeting specificity”.

`CCCCCCCCCCCCNC(=O)C(O)CN(CCCCCCCN(CC(O)C(=O)NCCCCCCCCCCCC)CC(O)C(=O)NCCCCCCCCCCCC)CC(O)C(=O)NCCCCCCCCCCCC` (stereo not drawn) [Compound L0308] yielded a PDI in data set [1] (setting [14]) of 0.10. Moreover, the “Particle size (nm)” value in data set [1] (setting [14]) amounted to 132.67 nm. The figures for the IVIS with mice (setting [15]) and in the data set with mice (setting [16]) were 9.07E+05 and 1.99E+05, respectively.

For `CCCCCCCCCCCCNC(=O)C(O)CN(CCOCCN(CC(O)C(=O)NCCCCCCCCCCCC)CC(O)C(=O)NCCCCCCCCCCCC)CC(O)C(=O)NCCCCCCCCCCCC` (stereo not drawn) [Compound L0306], in data set [1] (setting [14]), the PDI is given as 0.14 and the “Particle size (nm)” value is given as 84.96 nm. Besides, in the data set on mice (setting [15]), the IVIS was 1.82E+06. Besides, in the data set on mice (setting [16]), the IVIS came out at 7.90E+06.

With `CCCCCCOC(C)OCCCCCCOC(=O)C(O)CN(CCN(C)CCN(CC(O)C(=O)OCCCCCCOC(C)OCCCCCC)CC(O)C(=O)OCCCCCCOC(C)OCCCCCC)CC(O)C(=O)OCCCCCCOC(C)OCCCCCC` (stereo not drawn) [Compound L0333], the PDI in data set [1] (setting [11]) is recorded as 0.09. Also, the “Particle size (nm)” value in data set [1] (setting [11]) is reported as 130.70 nm. Also, the IVIS in the data set on mice (setting [12]) is 1.70E+06; in the data set on mice (IV, body, DMG-PEG2000:DSPC:Chol:compound 1.40:11.15:38.95:48.50, N/P 30, Fluc-mRNA), 6.44E+08; with mice (IV, liver, DMG-PEG2000:DSPC:Chol:compound 1.40:11.15:38.95:48.50, N/P 30, Fluc-mRNA), 1.29E+08; with mice (IV, lung, DMG-PEG2000:DSPC:Chol:compound 1.40:11.15:38.95:48.50, N/P 30, Fluc-mRNA), 7.15E+06; in the data set on mice (IV, spleen, DMG-PEG2000:DSPC:Chol:compound 1.40:11.15:38.95:48.50, N/P 30, Fluc-mRNA) it was 3.63E+07. The “% of organ targeting” value is 74.80% in the data set with mice (IV, liver, DMG-PEG2000:DSPC:Chol:compound 1.40:11.15:38.95:48.50, N/P 30); 4.15% with mice (IV, lung, DMG-PEG2000:DSPC:Chol:compound 1.40:11.15:38.95:48.50, N/P 30); 21.05% in the data set with mice (IV, spleen, DMG-PEG2000:DSPC:Chol:compound 1.40:11.15:38.95:48.50, N/P 30).

Source of the values: US12233161B1, “Lipids and lipid nanoparticle formulations” (LONGUIDE BIOPHARMA CORPORATION, priority 2024, dated 2025).
